Experimental findings from patent US12540131B2 (Merck Sharp & Dohme LLC, priority 2019, dated 2026) are described below.

The structures appear in SMILES notation.

GST tagged truncated human mutant G2019S LRRK2, sequence (Q5S007 970-2527 G2019S): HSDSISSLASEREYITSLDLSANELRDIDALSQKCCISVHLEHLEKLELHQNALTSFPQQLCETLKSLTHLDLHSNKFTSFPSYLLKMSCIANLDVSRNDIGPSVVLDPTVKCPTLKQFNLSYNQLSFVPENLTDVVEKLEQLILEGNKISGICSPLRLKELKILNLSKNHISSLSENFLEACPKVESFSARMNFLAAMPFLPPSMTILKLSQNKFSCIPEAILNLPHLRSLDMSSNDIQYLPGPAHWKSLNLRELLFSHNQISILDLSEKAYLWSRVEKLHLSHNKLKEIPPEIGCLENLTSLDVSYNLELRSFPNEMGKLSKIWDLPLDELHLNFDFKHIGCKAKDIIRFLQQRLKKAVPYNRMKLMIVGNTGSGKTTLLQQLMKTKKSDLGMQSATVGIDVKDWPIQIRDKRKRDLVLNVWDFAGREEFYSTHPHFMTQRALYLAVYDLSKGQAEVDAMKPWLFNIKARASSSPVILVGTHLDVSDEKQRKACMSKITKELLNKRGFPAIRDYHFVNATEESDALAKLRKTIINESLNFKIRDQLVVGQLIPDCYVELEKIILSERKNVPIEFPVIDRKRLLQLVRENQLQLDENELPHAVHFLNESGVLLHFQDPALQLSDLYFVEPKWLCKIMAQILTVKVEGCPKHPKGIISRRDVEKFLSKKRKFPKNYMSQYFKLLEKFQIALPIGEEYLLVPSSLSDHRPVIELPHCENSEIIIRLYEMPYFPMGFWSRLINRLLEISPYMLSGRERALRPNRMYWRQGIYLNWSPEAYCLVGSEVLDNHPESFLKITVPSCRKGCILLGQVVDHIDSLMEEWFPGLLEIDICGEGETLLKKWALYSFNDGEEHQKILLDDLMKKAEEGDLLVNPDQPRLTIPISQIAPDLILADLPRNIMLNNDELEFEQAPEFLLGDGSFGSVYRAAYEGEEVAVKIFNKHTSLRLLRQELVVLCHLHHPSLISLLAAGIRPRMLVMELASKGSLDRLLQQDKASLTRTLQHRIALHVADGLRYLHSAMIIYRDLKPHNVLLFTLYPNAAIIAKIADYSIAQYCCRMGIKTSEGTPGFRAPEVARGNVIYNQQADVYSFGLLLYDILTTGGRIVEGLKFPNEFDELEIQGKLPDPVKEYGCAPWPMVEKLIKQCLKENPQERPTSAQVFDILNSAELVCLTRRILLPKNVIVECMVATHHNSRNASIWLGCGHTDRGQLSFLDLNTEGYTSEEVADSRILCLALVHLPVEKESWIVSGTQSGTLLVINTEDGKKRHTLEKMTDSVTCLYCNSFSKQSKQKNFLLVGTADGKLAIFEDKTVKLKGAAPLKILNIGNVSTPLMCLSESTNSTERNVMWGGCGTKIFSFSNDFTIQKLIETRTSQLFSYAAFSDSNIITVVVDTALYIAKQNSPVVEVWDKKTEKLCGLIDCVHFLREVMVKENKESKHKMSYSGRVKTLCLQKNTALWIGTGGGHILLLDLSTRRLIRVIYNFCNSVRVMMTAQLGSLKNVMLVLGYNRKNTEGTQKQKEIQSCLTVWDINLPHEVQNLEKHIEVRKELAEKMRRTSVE

The first assay concerns the target GST tagged truncated human mutant G2019S LRRK2 (Homo sapiens (Human), UniProt Q5S007, G2019S). In words: LRRK2 Km ATP LanthaScreen Assay. It counts as biochemical. The conditions noted are these: G2019S LRRK2, 134 μM ATP (Km ATP), mean values. The procedure:
General Experimental Information: • Unless otherwise noted, all reactions are magnetically stirred. Unless otherwise noted, when diethyl ether is used in the experiments described below, it is Fisher ACS certified material and is stabilized with BHT. Unless otherwise noted, “concentrated” and/or “solvent removed under reduced pressure” means evaporating the solvent from a solution or mixture using a rotary evaporator or vacuum pump. Unless otherwise noted, flash chromatography is carried out on a Teledyne Isco (Lincoln, NE), Analogix (Burlington, WI), or Biotage (Stockholm, SWE) automated chromatography system using a commercially available cartridge as the column. Columns may be purchased from Teledyne Isco, Analogix, Biotage, Varian (Palo Alto, CA), or Supelco (Bellefonte, PA) and are usually filled with silica gel as the stationary phase. Reverse phase prep-HPLC conditions, where used, can be found at the end of each experimental section. Aqueous solutions were concentrated on a Genevac (Ipswich, ENG) or by freeze-drying/lyophilization. Unless otherwise noted, all LRRK2 pIC50 data presented in tables refers to the LRRK2 G2019S Km ATP LanthaScreen™ assay (Life Technologies Corp., Carlsbad, CA) that is described in the Biological Assay section.
The pIC50 values reported herein were measured as follows.
Biological Assay: LRRK2 Km ATP LanthaScreen™ Assay
Compound potency against LRRK2 kinase activity was determined using LanthaScreen™ technology from Life Technologies Corporation (Carlsbad, CA) using a GST20 tagged truncated human mutant G2019S LRRK2 in the presence of the fluorescein-labeled peptide substrate LRRKtide® (LRRK2 phosphorylated ezrin/radixin/moesin (ERM)), also from Life Technologies. The data presented for the Km ATP LanthaScreen™ Assay represents mean IC50 values based on several test results and may have reasonable deviations depending on the specific conditions and reagents used. Km is the Michaelis constant of an enzyme and is defined as the concentration of native substrate (ATP for a kinase) which permits the enzyme to achieve half Vmax (Vmax=rate of reaction when the enzyme is saturated with substrate). IC50 (half-maximal inhibitory concentration) represents the concentration of inhibitor required to inhibit LRRK2 kinase activity by 50%. Assays were performed in the presence of 134 μM ATP (Km ATP). Upon completion, the assay was stopped, and phosphorylated substrate detected with a terbium (Tb)-labeled anti-pERM antibody (cat. no. PV4898). The compound dose response was prepared by diluting a 10 mM stock of compound to a maximum concentration of 9.99 μM in 100% DMSO, followed by custom fold serial dilution in DMSO nine times. 20 nL of each dilution was spotted via a Labcyte Echo onto a 384-well black-sided plate (Corning 3575) followed by 15 μl of a 1.25 nM enzyme solution in 1× assay buffer (50 mM Tris pH 8.5, 10 mM MgCl2, 0.01% Brij-35, 1 mM EGTA, 2 mM dithiothreitol, 0.05 mM sodium orthovanadate). Following a 15-minute incubation period at RT, the kinase reaction was started with the addition of 5 μl of 400 nM fluorescein-labeled LRRKtide® (LRRK2 phosphorylated ezrin/radixin/moesin (ERM)) peptide substrate and 134 μM ATP solution in 1× assay buffer. The reaction was allowed to progress at ambient temperature for 90 minutes. The reaction was then stopped by the addition of 20 μl of TR-FRET Dilution Buffer (Life Technologies, Carlsbad, CA) containing 2 nM Tb-labeled anti-phospho LRRKtide® (LRRK2 phosphorylated ezrin/radixin/moesin (ERM)) antibody and 10 mM EDTA (Life Technologies, Carlsbad, CA). After an incubation period of 1 h at RT, the plate was read on an EnVision® multimode plate reader (Perkin Elmer, Waltham, MA) with an excitation wavelength of 337 nm (Laser) and a reading emission at both 520 and 495 nm. Compound IC50 values were interpolated from nonlinear regression best-fits of the log of the final compound concentration, plotted as a function of the 520/495-nm emission ratio using activity base “Abase”). […]
On the technique in general: TR-FRET usually uses a lanthanide donor and a delayed reading to cut background.
Consider `Cc1c(Nc2ncc3cc(Cl)c(C4CCN(CC5(O)CCC5)CC4)cc3n2)cnn1C1CC1` [Ex-4.215, 1-[(4-{6-chloro-2-[(1-cyclopropyl-5-methyl-1H-pyrazol-4-yl)amino]quinazolin-7-yl}piperidin-1-yl)methyl]cyclobutan-1-ol], for which the “LRRK2 pIC50” value is recorded as 8.57.

Take `Cc1cc(Nc2ncc3cc(C)c([C@@H]4CCN([C@H]5COC[C@H]5O)C[C@H]4F)cc3n2)n(C)n1` (single isomer, unassigned) [Ex-5.10, (3S,4S)(3S,4S) or (3S,4S)(3R,4R) or (3R,4R)(3S,4S) or (3R,4R)(3R,4R) 4-(4-{2-[(1,3-dimethyl-1H-pyrazol-5-yl)amino]-6-methylquinazolin-7-yl}-3-fluoropiperidin-1-yl)oxolan-3-ol]: the “LRRK2 pIC50” value was 6.66.

With `Cn1ncc(Nc2ncc3cc(Cl)c([C@@H]4CCN([C@]5(C)COC[C@@H]5O)C[C@H]4F)cc3n2)c1Cl` (single isomer, unassigned) [Ex-4.233, (3S,4S)(3S,4S) or (3S,4S)(3R,4R) or (3R,4R)(3S,4S) or (3R,4R)(3R,4R) 4-(4-{6-chloro-2-[(5-chloro-1-methyl-1H-pyrazol-4-yl)amino]quinazolin-7-yl}-3-fluoropiperidin-1-yl)-4-methyloxolan-3-ol], the “LRRK2 pIC50” value is recorded as more than 9.20.

As for `C[C@@]1(N2CCC(c3cc4nc(Nc5cnn(C6CC6)c5C(F)F)ncc4cc3Cl)CC2)COC[C@@H]1O` (single isomer, unassigned) [Ex-2.91, (3S,4S) or (3R,4R) 4-[4-(6-chloro-2-{[1-cyclopropyl-5-(difluoromethyl)-1H-pyrazol-4-yl]amino}quinazolin-7-yl)piperidin-1-yl]-4-methyloxolan-3-ol], the “LRRK2 pIC50” value is more than 9.20.

Turning to `CC(n1ncc(Nc2ncc3cc(Cl)c([C@H]4CCN(C)C[C@@H]4F)cc3n2)c1Cl)C(C)(C)O` (single isomer, unassigned) [Ex-4.68, (R)(3S,4S) or (R)(3R,4R) or (S)(3S,4S) or (S)(3R,4R) 3-(5-chloro-4-{[6-chloro-7-(3-fluoro-1-methylpiperidin-4-yl)quinazolin-2-yl]amino}-1H-pyrazol-1-yl)-2-methylbutan-2-ol], the “LRRK2 pIC50” value came to 8.92.

Regarding `Cc1c(Nc2ncc3cc(Cl)c(C4CCN([C@H]5COC[C@H]5O)CC4)cc3n2)cnn1C12CC(C1)C2` (single isomer, unassigned) [Ex-2.27, (3S,4S) or (3R,4R) 4-[4-(2-{[1-(bicyclo[1.1.1]pentan-1-yl)-5-methyl-1H-pyrazol-4-yl]amino}-6-chloroquinazolin-7-yl)piperidin-1-yl]oxolan-3-ol], the “LRRK2 pIC50” value was 8.87.

In the case of `CC(n1ncc(Nc2ncc3cc(Cl)c([C@@H]4CCN(C)C[C@H]4F)cc3n2)c1Cl)C(C)(C)O` (single isomer, unassigned) [Ex-4.60, (R)(3S,4S) or (R)(3R,4R) or (S)(3S,4S) or (S)(3R,4R) 3-(5-chloro-4-{[6-chloro-7-(3-fluoro-1-methylpiperidin-4-yl)quinazolin-2-yl]amino}-1H-pyrazol-1-yl)-2-methylbutan-2-ol], the “LRRK2 pIC50” value is given as 8.69.

Take `N#CC1(Cn2ncc(Nc3ncc4cc(Cl)c(C5CCN(C6COC6)CC5)cc4n3)c2Cl)CC1` [Ex-8.24, 1-{[5-chloro-4-({6-chloro-7-[1-(oxetan-3-yl)piperidin-4-yl]quinazolin-2-yl}amino)-1H-pyrazol-1-yl]methyl}cyclopropane-1-carbonitrile]: the “LRRK2 pIC50” value was found to be 8.92.

Take `Cc1nsc(Nc2ncc3cc(Cl)c([C@H]4CCN(C5CCOC5)C[C@@H]4F)cc3n2)c1Cl` (single isomer, unassigned) [Ex-8.22, (3S,4S)(S) or (3S,4S)(R) or (3R,4R)(S) or (3R,4R)(R) 6-chloro-N-(4-chloro-3-methyl-1,2-thiazol-5-yl)-7-[3-fluoro-1-(oxolan-3-yl)piperidin-4-yl]quinazolin-2-amine]: the “LRRK2 pIC50” value is given as 8.68.

With `O=S1(=O)CC(N2CCC(c3cc4nc(Nc5cnn(C6CC6)c5Cl)ncc4cc3Cl)CC2)C1` [Ex-8.7, 3-(4-(6-chloro-2-((5-chloro-1-cyclopropyl-1H-pyrazol-4-yl)amino)quinazolin-7-yl)piperidin-1-yl)thietane 1,1-dioxide], the “LRRK2 pIC50” value is reported as more than 9.20.

In the case of `N#CC1CCC(N2CC[C@@H](c3cc4nc(Nc5cnn(C6CC6)c5Cl)ncc4cc3Cl)[C@H](F)C2)C1` (single isomer, unassigned) [Ex-4.111, (1R,3S)-3-((3S,4S) or (1S,3R)-3-((3S,4S) or (1R,3R)-3-((3S,4S) or (1S,3S)-3-((3S,4S) or (1R,3S)-3-((3R,4R) or (1S,3R)-3-((3R,4R) or (1R,3R)-3-((3R,4R) or 1S,3S)-3-((3R,4R) 4-(6-chloro-2-((5-chloro-1-cyclopropyl-1H-pyrazol-4-yl)amino)quinazolin-7-yl)-3-fluoropiperidin-1-yl)cyclopentane-1-carbonitrile], the “LRRK2 pIC50” value worked out at 8.55.

On to `C[C@]1(N2CC[C@@H](c3cc4nc(Nc5cnn(C6CC6)c5Cl)ncc4cc3Cl)[C@H](F)C2)COC[C@H]1O` (single isomer, unassigned) [Ex-4.247, (3S,4S)(3S,4S) or (3S,4S)(3R,4R) or (3R,4R)(3S,4S) or (3R,4R)(3R,4R) 4-(4-{6-chloro-2-[(5-chloro-1-cyclopropyl-1H-pyrazol-4-yl)amino]quinazolin-7-yl}-3-fluoropiperidin-1-yl)-4-methyloxolan-3-ol], for which the “LRRK2 pIC50” value is on record as more than 9.20.

Regarding `Cn1ncc(Nc2ncc3cc(Cl)c([C@H]4CCN([C@H]5COC[C@H]5O)C[C@@H]4F)cc3n2)c1C1CC1` (single isomer, unassigned) [Ex-4.242, (3S,4S)(3S,4S) or (3S,4S)(3R,4R) or (3R,4R)(3S,4S) or (3R,4R)(3R,4R) 4-(4-{6-chloro-2-[(5-cyclopropyl-1-methyl-1H-pyrazol-4-yl)amino]quinazolin-7-yl}-3-fluoropiperidin-1-yl)oxolan-3-ol], the “LRRK2 pIC50” value was found to be 7.67.

For `FC1COCC1N1CC[C@@H](c2cc3nc(Nc4cnn(C5CC5(F)F)c4Cl)ncc3cc2Cl)C(F)C1` (some centres unmarked) [Ex-7.1], the “LRRK2 pIC50” value was determined as 9.01.

The same assay, now with this note: G2019S LRRK2, 134 μM ATP (Km ATP), mean values; read-out: LRRK2 pIC50 (converted).
With `CC(C)(O)Cn1ncc(Nc2ncc3cc(Cl)c(C4CCN(C5CCOC5)CC4)cc3n2)c1Cl` (single isomer, unassigned) [Ex-4.77, (S) or (R) 1-[5-chloro-4-({6-chloro-7-[1-(oxolan-3-yl)piperidin-4-yl]quinazolin-2-yl}amino)-1H-pyrazol-1-yl]-2-methylpropan-2-ol], the IC50 was 1.82 nM.

Take `Cc1c(Nc2ncc3cc(Cl)c(C4CCN(C5CCCC5(F)F)CC4)cc3n2)cnn1C1CC1` (single isomer, unassigned) [Ex-1.22, (S) or (R) 6-chloro-N-(1-cyclopropyl-5-methyl-1H-pyrazol-4-yl)-7-[1-(2,2-difluorocyclopentyl)piperidin-4-yl]quinazolin-2-amine]: the IC50 was 7.94 nM.

Regarding `Cc1c(Nc2ncc3cc(Cl)c(C4CCN(CC(O)c5ccc(Cl)cc5)CC4)cc3n2)cnn1C1CC1` (single isomer, unassigned) [Ex-4.224, (S) or (R) 2-(4-{6-chloro-2-[(1-cyclopropyl-5-methyl-1H-pyrazol-4-yl)amino]quinazolin-7-yl}piperidin-1-yl)-1-(4-chlorophenyl)ethan-1-ol], the IC50 is 13.8 nM.
